Data reported in publication PMC4745926, “Absorption, Metabolism, and Excretion by Freely Moving Rats of 3,4-DHPEA-EDA and Related Polyphenols from Olive Fruits (Olea europaea)” (Journal of Nutrition and Metabolism, 2016).
“Also recorded” adds a separate entry of the source.

Legend:
[1] = Urinary excretion after intravenous administration; assay type: in vivo, Wistar ST rats
Method: SPF Wistar ST rats (6 weeks of age, male, 180 ± 20 g of body weight) were purchased from Japan SLC Inc. (Hamamatsu, Japan). The rats were housed in an air-conditioned room at 22 ± 2°C under cycles of 12 hours dark and 12 hours light and given free access to a commercial diet and water for a week. The rats were then fasted for over 16 hours before the experiments. The present study was approved by the Animal Care and Use Committee at Kagawa University, and the rat treatment conformed to the Rules of Animal Experiments at Kagawa University. 3,4-[…] (300 mg/kg body weight; 936.51 μmol/kg) dissolved in 50% polyethylene glycol aqueous solution was administered orally via a stomach tube to the portal vein cannulated rats. Blood samples (450 μL) were then collected using a heparinized syringe attached to the cannula before administration and 5, 15, 30, 60, 120, and 240 min after administration. Urine was also collected before administration and 0 to 2 h and 2 to 4 h after administration. For intravenous administration, 3,4-[…] (10 mg/kg; 31.22 μmol/kg) was injected into the jugular vein, and blood (450 μL) was collected using a heparinized syringe before administration and 5, 15, 30, 60, 120, and 240 min after administration via the jugular vein cannula. The blood (450 μL) collected was immediately cooled on ice and centrifuged at 15,000 rpm for 5 min at 4°C to obtain over 200 μL plasma. Urine was also collected before administration and 0 to 2 h and 2 to 4 h after administration. Bile was collected via the bile duct cannula before administration and 0 to 2 h and 2 to 4 h after intravenous administration. The collected plasma, urine, and bile were immediately stored in an ice box until further analyses. HT (oral administration: 100 mg/kg; 648.66 μmol/kg, intravenous administration: 10 mg/kg; 64.87 μmol/kg) and Ole (oral administration: 300 mg/kg; 555.02 μmol/kg, intravenous administration: 10 mg/kg; 18.50 μmol/kg) were investigated using the same method as described above. Metabolites were deconjugated by using β-glucuronidase (500 U) and sulfatase (50 U) in 50 μL 625 mM MOPS (pH 6.8), which was added to 200 μL of plasma, urine, or bile. The mixture was incubated for 45 min at 37°C and subjected to extraction using QuEChERS [33]. […] Shimadzu, Kyoto, Japan) equipped with a Shim-pack XR-ODS column (3.0 mm I.D. × 100 mm; Shimadzu, Kyoto, Japan) at 40°C with a mobile phase of 0.5% TFA-1% acetonitrile aqueous solution (A) and 0.5% TFA-75% acetonitrile aqueous solution (B). The elution conditions are described as follows: isocratic elution of 0% B was maintained for 4.0 min; linear gradient 0 to 4% B, 4.0-4.5 min; linear gradient 4.0-16.0% B, 4.5-16.0 min; linear gradient 16.0-100% B, 16.0-25.0 min; isocratic elution of 100% B, 25.0-26.0 min; and linear gradient 100 to 0% B, 26.0-26.1 min, with a flow rate of 0.5 mL/min. Injection volume was 50 μL. All eluted peaks were detected at 279 nm with a diode array detector (SPD-M20A; Shimadzu, Kyoto, Japan).

[2] = Recovery of 3,4-DHPEA-EDA spiked into rat plasma; assay type: in vitro ADME; conditions: recovery yield check
Method: After oral administration of 3,4-DHPEA-EDA, HT (27.7 AUC0→4 h-i.g./Dosei.g.), HVAOH (4.2 AUC0→4 h-i.g./Dosei.g.), and HVA (4.5 AUC0→4 h-i.g./Dosei.g.) were detected in the portal plasma. Low absorption of 3,4-DHPEA-EDA is reported in some papers. […] Plasma components such as serum albumin, serum lipoprotein, and glycoprotein may have bound 3,4-DHPEA-EDA and hindered its detection. 3,4-DHPEA-EDA as a dialdehyde form might quickly bind to proteins bearing primary amines such as globulins, albumins, and other functional proteins in blood plasma, as malondialdehyde does. […] To our knowledge, this is the first report of the formation of HVAOH from 3,4-DHPEA-EDA.

Structure (SMILES) | Detection of intact Ole and metabolites in urine ([1]; listed as Ole) | Detection of intact 3,4-DHPEA-EDA in urine [1] | HT in urine [1] | HVA in urine [1] | HVAOH in urine [1] | Total metabolites observed in the urine [1] | Recovery of 3,4-DHPEA-EDA spiked into rat plasma [2]
C/C=C1/[C@H](O[C@@H]2O[C@H](CO)[C@@H](O)[C@H](O)[C@H]2O)OC=C(C(=O)OC)[C@H]1CC(=O)OCCc1ccc(O)c(O)c1 [Oleuropein, reference compound] | not detected at all | – | – | – | – | – | –
CC=C(C=O)C(CC=O)CC(=O)OCCc1ccc(O)c(O)c1 (stereo not shown) [3,4-DHPEA-EDA, 3,4-dihydroxyphenylethyl elenolate dialdehydic form] | – | not observed; also recorded: not detected | 6.3 % of dose | 2.6 % of dose | 4.6 % of dose | 13% | could not be detected
